Literature values in US20030143247A1, “Antiviral compositions and methods for identification and use” (priority 2002, published 2003).

How the values were obtained:
[1] = tested on: HIV viral RNA region within the Rev-binding site; conditions: Zapp et al., Cell 74, 1993
[2] = human, in vivo
HCV = conditions: various clinical trials

## NC[C@@H]1O[C@H](O[C@H]2[C@@H](O)[C@H](O[C@@H]3[C@@H](O)[C@H](N)C[C@H](N)[C@H]3O[C@H]3O[C@H](CN)[C@@H](O)[C@H](O)[C@H]3N)O[C@@H]2CO)[C@H](N)[C@@H](O)[C@@H]1O [neomycin B]
[1]
  effect on Rev protein binding to HIV viral RNA: blocks Rev protein binding

## NC(=O)c1ncn([C@@H]2O[C@H](CO)[C@@H](O)[C@H]2O)n1 [ribavirin, 1-β-D-ribo-furanosyl-1,2,4-trizole-3-carboxamide]
[2]
  side effect: can cause hemolytic anemia

## IFN-α
HCV; patients treated with IFN-α
  patients who initially responded to the therapy: approximately 40%
HCV; share of the initial responders
  initial responders who relapsed after the treatment ended: 70%
